Experimental data from PMC8924238, “Mapping the sequence specificity of heterotypic amyloid interactions enables the identification of aggregation modifiers” (Nature Communications, 2022).
“Also recorded” adds a separate entry of the source. Residues, ends and D or L forms follow the SMILES beside them.

Key:
ATTO633-monomeric tau = biological target: T1, ATTO633-monomeric tau (Homo sapiens, UniProt P10636); experiment: Microscale thermophoresis, monomeric rTau; type: binding; conditions: MST, 25 nM ATTO633-monomeric tau, CAP1 titrated from 50 μM; n = 3
T1 construct: heparin-induced aggregation of recombinant full-length tau (rTau); made in house
T1 sequence (P10636 1-441 isoform P10636-8): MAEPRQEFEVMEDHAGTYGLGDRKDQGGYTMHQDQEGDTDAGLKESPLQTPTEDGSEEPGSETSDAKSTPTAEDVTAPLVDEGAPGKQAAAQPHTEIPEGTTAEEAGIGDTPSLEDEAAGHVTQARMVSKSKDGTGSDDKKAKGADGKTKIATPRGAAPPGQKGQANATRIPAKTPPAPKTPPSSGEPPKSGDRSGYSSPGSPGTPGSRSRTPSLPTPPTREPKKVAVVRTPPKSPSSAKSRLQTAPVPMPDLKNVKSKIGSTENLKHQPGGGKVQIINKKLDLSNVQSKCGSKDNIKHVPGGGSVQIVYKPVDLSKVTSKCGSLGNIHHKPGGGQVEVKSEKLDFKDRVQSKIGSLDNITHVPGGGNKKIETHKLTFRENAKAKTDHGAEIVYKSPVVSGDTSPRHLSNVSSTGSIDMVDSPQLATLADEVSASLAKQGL
Description: MST measurements were performed to calculate binding affinities. Monomeric tau was labelled using amine reactive ATTO633 (ATTO633-NHS), following the manufacturer guidelines. Labelled tau aggregates were prepared using a 1:9 analogy of labelled to unlabelled monomeric tau, following the same aggregation protocol described for the unlabelled protein. 25 nM of ATTO633-monomeric tau or ATTO633-tau seeds were mixed against the CAP1 inhibitor, which was dissolved and titrated down starting from 50 μM, in tau buffer (HEPES 10 mM, 100 mM NaCl). Measurements were recorded on a Monolith NT automated instrument (NanoTemper Technologies GmbH, Germany) with a red-laser channel at 5% LED excitation power and medium MST power at ambient conditions. Affinity constants and experimental data fitting was performed using the NanoTemper analysis software (v2.2.4) and results were depicted as differentials between the bound and unbound state after baseline subtraction (ΔFnorm) over inhibitor concentration in the logarithmic scale.

[1] = biological target: T2, VQIVYK (PHF6) APR from tau (Homo sapiens, UniProt P10636); experiment: Th-T aggregation kinetics of VQIVYK with sub-stoichiometric variant peptides (1:5) or CAP1; type: biochemical; conditions: Fig. 8c
T2 construct: The VQIVYK (PHF6) stretch, located in the C-terminal repeat domain of tau; made in house; host or cells: chemical solid phase peptide synthesis (no expression host)
Description: To experimentally investigate these calculations, we synthesised a library of 90 peptides corresponding to 78% of all single amino acid substitutions of the VQIVYK APR. We excluded introduction of cysteines to avoid further complexity introduced by the formation of intermolecular disulphides and also avoided substitutions of the Tyr residue at position five, since it enables fast and accurate readout of peptide concentration. First, peptide:APR mixtures were monitored using Th-T aggregation kinetic assays. For this screen, we used sub-stoichiometric mixtures of the variant peptides against PHF6 (1:5 analogy). The reasoning behind this was that it enabled tracing of subtle differences in aggregation kinetics, while at the same time reduced the propensity of most variants to participate in self-assembly. […] For the rest, following curve fitting of the monitored Th-T curves (Figs. 5a, b and S4), we calculated and summarised fold changes of aggregation half-times (t1/2) in a volcano plot, with the negative logarithm of the p-values represented on the vertical axis (Fig. 5c). […] It should be noted, however, that changes in fluorescence intensity can also potentially reflect morphological differentiation of the produced fibrils that can affect Th-T binding. […]

[2] = test system: HEK293 Tau^RD-P301S-CFP/YFP expressing biosensor cells; experiment: Seeding inhibition in FRET tau biosensor cells, AD brain extracts; type: cell-based, human; conditions: CAP1 500 nM pre-treatment, extracts diluted 500x, three patients in duplicates, n = 6
Description: Ethical approval to access and work on the human tissue samples was given by the UZ Leuven ethical committee (Leuven/Belgium; File-No. S63759). An informed consent for autopsy and scientific use of autopsy tissue with clinical information was granted from all subjects involved. Following approval, brain tissue from autopsy cases was received from UZ/KU Leuven Biobank. Sarkosyl-insoluble material was extracted from cortex tissue of three individual patients with Alzheimer’s disease (designated here as A1–A3, Supplementary Table 3), as shown previously. Briefly, the tissue was homogenised with a FastPrep (MP Biomedicals) in 10 volumes (w/v) cold buffer consisting of 10 mM Tris-HCl pH 7.4, 0.8 M NaCl, 1 mM EGTA and 10% sucrose, followed by centrifugation at 20,000 × g for 20 min at 4 °C. Universal Nuclease (Pierce) was added to the supernatant, followed by a 30 min incubation at room temperature. The sample was then brought to 1% Sarkosyl (Sigma) and incubated for 1 h at room temperature while shaking (400 rpm), followed by centrifugation at 350,000 × g for 1 h at 4 °C. The pellet was washed once, resuspended in 50 mM Tris-HCl pH 7.4 (175 mg of starting material per 100 µl) and stored at −80 °C. […]

[3] = biological target: T3, recombinant full-length tau (tau^2N4R) (Homo sapiens, UniProt P10636); experiment: Th-T kinetics of heparin-induced aggregation of recombinant full-length tau; type: biochemical; conditions: Fig. 8d
T3 construct: Recombinant full-length tau (tau^2N4R) was produced following previous established protocols; made in house
T3 sequence (P10636 1-441 isoform P10636-8): as above
Description: Recombinant full-length tau (tau^2N4R) was produced following previous established protocols. Lyophilised protein aliquots were freshly dissolved in 10 mM HEPES pH 7.4 supplemented with 100 mM NaCl at a final concentration of 10 μM. After filtration, using […] PVDF filters, the protein solution was spiked with 5 μ μM of heparin (Sigma) and aggregation was monitored by adding 25 μM of Th-T in half-area black 96-well microplates (Corning, USA). Fluorescence was measured in triplicates, using a FluoStar Omega plate reader (BMG Labtech, Germany) at 37 °C, equipped with an excitation filter at 440 nm and emission filter at 490 nm. To generate seeds, endpoint amyloid fibrils were sonicated for 15 min (30 s on, 30 s off) at 10 °C, using a Bioruptor Pico sonication device (Diagenode).

binding to monomeric rTau (ATTO633-monomeric tau): no significant binding
SMILES: CC[C@H](C)[C@H](NC(=O)[C@H](CCC(N)=O)NC(=O)[C@H](Cc1c[nH]c2ccccc12)NC(=O)[C@H](CCCNC(=N)N)NC(=O)[C@H](CO)NC(=O)CNC(=O)[C@H](CCCNC(=N)N)NC(=O)[C@H](CCCCN)NC(=O)[C@H](Cc1ccc(O)cc1)NC(=O)[C@@H](NC(=O)[C@@H](NC(=O)[C@H](CCC(N)=O)NC(=O)[C@H](Cc1c[nH]c2ccccc12)NC(=O)[C@@H](N)CCCNC(=N)N)[C@@H](C)CC)C(C)C)C(=O)N[C@H](C(=O)N[C@@H](Cc1ccc(O)cc1)C(=O)N[C@@H](CCCCN)C(=O)N[C@@H](CCCNC(=N)N)C(=O)O)C(C)C [CAP1] (H-RWQIVYKRGSRWQIVYKR-OH; N-terminus and C-terminus assumed)
inhibition of self-assembly of the PHF6 hexapeptide [1]: successfully inhibited; also recorded: inhibits | seed propagation of AD patient brain extracts (fraction of cells containing tau inclusions) [2]: significantly reduces | inhibition of heparin-induced aggregation of rTau [3]: successfully inhibited; also recorded: inhibits
